Measurements reported in patent US20080249034A1, “Use of Macrolides for Treating Intestinal Inflammation” (ZAMBON S.P.A., priority 2005, published 2008).

Test system: DNBS-induced colitis
Test: DNBS-induced colitis in rats, macroscopic damage score
Assay type: in vivo, rat
Conditions: Sprague-Dawley rats, intrarectal DNBS on day 2, DNBS group score 10.7±0.4
Protocol: Albino male Sprague-Dawley rats, 200-250 g body weight, were treated with intrarectal DNBS (2,4-dinitrobenzensufonic acid, 30 mg in 0.25 ml of 50% ethanol) under a light anaesthesia with diethyl ether. In control experiments, the animals received 0.25 ml of saline (NaCl 0.9%). Animals were subjected to subsequent experimental procedures 6 days after induction of colitis with DNBS (Blandizzi et al., Altered prejunctional modulation of intestinal cholinergic and noradrenergic pathways by alpha-2-adrenoceptors in the presence of experimental colitis. Br J Pharmacol 139, 309-320, 2003). […]
At the end of treatments, animals were sacrificed and the severity of colonic inflammation was macroscopically evaluated in accordance with the criteria previously reported by Wallace and Keenan (Wallace J L and Keenan C M, An orally active inhibitor of leukotriene synthesis accelerates healing in a rat model of colitis. Am J Physiol, 258, G527-G534, 1990) with minor modifications (Blandizzi, et al., 2003). Briefly, the macroscopic evaluation is based on the following criteria: presence of adhesions between the colon and other intra-abdominal organs; consistency of colonic faecal material (as an indirect marker of diarrhea); thickening of the colonic wall; presence and extension of hyperemia and macroscopic mucosal damage (assessed with the aid of a ruler) (FIG. 2). […]

Question: How did the “anti-inflammatory effect (change of macroscopic damage score)” value (100 μmol/kg/day by intragastric gavage for 7 days) turn out when `CC[C@H]1OC(=O)[C@H](C)[C@@H](O)[C@H](C)[C@@H](O[C@@H]2O[C@H](C)C[C@H](N(C)C(C)=O)[C@H]2O)C(C)(O)C[C@@H](C)[C@H](O)[C@H](C)[C@@H](O)[C@]1(C)O` (some centres unmarked) [macrolide] was run?
Answer: −24%

Question: What about the “anti-inflammatory effect (change of macroscopic damage score)” value (300 μmol/kg/day by intragastric gavage for 7 days) of the same compound?
Answer: −51%
